# Assays:
# Type in all cases: in vivo, mouse
# [1] = test system: C-26 colon adenocarcinoma cachexia model; assay: Initial AR-42/GTx-024 combination study (Study 1), C-26 model; conditions: for effect on gastrocnemius and quadriceps mass: monotherapy (GTx-024 15 mg/kg; AR-42 10 mg/kg)
# Description: These studies were performed as previously described (Tseng Y C, et al. J Natl Cancer Inst. 2015 107(12):djv274) with modifications. Tumors were established in the right flank by subcutaneous injection of C-26 cells (0.5×10^6 cells in 0.1 mL). […] TFM-4AS-1 (a potent experimental SARM), dihydrotestosterone (DHT) and vehicles were administered by subcutaneous injection.
# Male CD2F1 mice were stratified by body weight and then randomly assigned into 6 groups of 6 animals each. Historically, 6 animals per group provided sufficient power to detect treatment-mediated differences in tumor-bearing treated animals compared to controls. Tumors were established in four of the groups, while the fifth and sixth groups served as tumor-free controls. Six days later, animals with palpable tumors were treated twice daily for 13 days. […] Body weight, tumor volume, and feed consumption were monitored every other day. Upon sacrifice on day 18, sera were collected and hind limb skeletal muscles, heart, spleen and epididymal adipose tissues were harvested, weighed, flash frozen, and stored for subsequent analyses.
# Male CD2F1 mice (6-7 weeks of age; Harlan Laboratories, Indianapolis, Ind.) were group-housed under conditions of constant photoperiod (12-hour light/12-hour dark), temperature and humidity with ad libitum access to water and standard pelleted chow. […] In experiments in which food consumption was determined, the food in each cage was weighed daily and the daily decrease in food weight was divided by the number of mice in the cage. Tumor volumes were calculated from caliper measurements using a standard formula (length×width^2×π/6). Mice were euthanized by CO2 inhalation.
# [2] = test system: atrogin-1 (FBXO32), MuRF-1 (TRIM63), CEBPO (CEBPD); assay: qRT-PCR of atrophy-related genes in gastrocnemius muscle, Study 1; conditions: relative to tumor-bearing controls, GTx-024 15 mg/kg, AR-42 10 mg/kg
# Description: (§1) FIGS. 3A-B show gene expression of multiple cachexia-associated markers in gastrocnemius muscles of individual animals from Study 1 (n=5-6 per group). Expression was determined by qRT-PCR (Geometric Mean±Geometric STD). FIG. 3A contains bar graphs showing genes associated with muscle atrophy. FIG. 3B is a bar graph showing androgen receptor (AR) mRNA expression. […] Statistics all panels: *p<0.05, ***p<0.001, ****p<0.0001 versus tumor-bearing vehicle-treated controls, Dunnett's multiple comparison test. CEBPO, n=4, insufficient sample to analyze all tumor-bearing GTx-024-treated animals.
# qRT-PCR: To generate muscle tissue RNA, 15 mg of gastrocnemius muscle tissue was lysed in 10 volumes of lysis buffer per tissue mass in prefilled 2.0 ml tubes with 3.0 mm zirconium beads (MIDSCl; St. Louis, Mo.). Tubes were loaded into Beadblaster™ 24 (MIDSCl; St. Louis, Mo.) and centrifuged for 5 cycles of 5 seconds with a 30 second pause between cycles. Lysate was collected and RNA was isolated using the mirVana™ miRNA Isolation Kit, with phenol (ThermoFisher; Waltham, Mass.). Samples were treated with DNA-free DNA Removal Kit to eliminate any DNA contamination (Invitrogen, Carlsbad, Calif.). […] As transformed expression data are not normally distributed, statistical differences between treatment groups were determined by one-way ANOVA followed by Dunnett's test on raw delta Ct values.
# [3] = test system: androgen receptor (AR); assay: Western blot of androgen receptor in gastrocnemius muscle, Study 1; conditions: irrespective of tumor burden
# Description: as §1
# Western blots from all studies were performed on gastrocnemius muscle from representative animals lysed by Nonidet P-40 isotonic lysis buffer [50 mM Tris-HCl, pH 7.5, 120 mM NaCl, 1% (v/v) Nonidet P-40, 1 mM EDTA, 50 mM NaF, 40 mM glycerophosphate, and […] each of protease inhibitors (aprotinin, pepstatin, and leupeptin)]. Equivalent amounts of protein from each sample, as determined by Bradford assay (Bio-Rad), was resolved by SDS-PAGE and then transferred (semi-dry) onto immobilon-nitrocellulose membranes (Millipore, Billerica, Mass.). Membranes were washed twice with TBST [Tris-buffered saline (TBS) containing 0.1% Tween 20], blocked with 5% nonfat milk in TBST for 1 hour, and then washed an additional 3 times. […]
Compound,"terminal body weight, corrected for tumor weight ([1]; Study 1, Day 18, C-26 tumor-bearing, AR-42 10 mg/kg, GTx-024 15 mg/kg, oral, 13 days)","effect on gastrocnemius and quadriceps mass ([1]; Study 1, C-26 tumor-bearing)","atrogin-1, MuRF-1, or CEBPO expression [2]",AR protein expression in gastrocnemius [3],"effect on body weight ([1]; Study 1, C-26 tumor-bearing, GTx-024 15 mg/kg monotherapy)","per animal food consumption ([1]; Study 1, between day 14 and 16, GTx-024 in tumor-free animals, combination in tumor-bearing animals, relative to other groups)","body weight in tumor-free controls ([1]; Study 1, tumor-free mice, GTx-024 15 mg/kg)"
"CC(C)[C@H](C(=O)Nc1ccc(C(=O)NO)cc1)c1ccccc1 [AR-42, (S)—N-hydroxy-4-(3-methyl-2-phenylbutanamido)benzamide]",93.6±7.7 % of baseline,not translated into significant improvements in gastrocnemius and quadriceps mass,significantly reduced the expression of each atrogene,did not have a marked impact on AR expression,,,
"C[C@](O)(COc1ccc(C#N)cc1)C(=O)Nc1ccc(C#N)c(C(F)(F)F)c1 [GTx-024, (2S)-3-(4-cyanophenoxy)-N-(4-cyano-3-(trifluoromethyl)phenyl)-2-hydroxy-2-methylpropanamide]",,did not spare,no significant impact,increased,did not spare body weight,small increases in per animal food consumption,did not cause body weight loss
